Reference: patent US20250302974A1, “LECTIN-DRUG CONJUGATES” (UNICHEM LABORATORIES LIMITED, priority 2021, published 2025)
pIC50: −log10 of the molar value. Square brackets hold non-standard residues; d marks the D form. Peptide text beside a SMILES is read from it. * marks the point of attachment. Dolaproine = CO[C@@H]([C@@H]1CCCN1)[C@@H](C)C(=O)O; Dil = CC[C@H](C)[C@H](NC)[C@@H](CC(=O)O)OC; X1 = C[C@@H](N*)[C@@H](O)c1ccccc1; NMeV = CN[C@H](C(=O)O)C(C)C

Columns and labels:
A549 Lungs = experiment: Cytotoxic effect by MTT assay, 48 h; conditions: for Percent cytotoxicity wrt control: 48 h
Description: (§1) Cells were treated with Test Items at various concentrations (0.0001 μM-10 μM) for 48 h. The cells corresponding to Positive Control group were treated with Doxorubicin at a concentration ranging from 0.1 μM-100 μM. The Untreated cells were used as Control. After 48 h of incubation, the effect of Test Items on cytotoxicity of cells was determined by MTT assay, the plates were taken out and 20 μl of 5 mg/m1 of MTT 3-(4,5-dimethythiazol-2-yl)-2,5-diphenyl tetrazolium bromide solution was added to all the wells. Cells were incubated for 3 h at 37° C. The supernatant was aspirated. 150 μl of DMSO was added to each well to dissolve formazan crystals. The absorbance of each well was then read at 540 nm using Synergy HT micro plate reader.
(§2) The % Cytotoxicity was calculated using the formula:
(§3) Where, X=Absorbance of cells treated with Test Item; R=Absorbance of Control cells (Untreated cells maintained in growth medium only).
(§4) Selectivity Index was calculated using the formula:
(§5) SI=IC50 in Normal cell/IC50 in cancer cell.
Activity scores of the Selective Index values were categorized as: • Not selective (SI value ≤1) • Moderately selective (1<SI value <5) • Selective (SI value ≥5)

PA-1 cells [1] = experiment: Cytotoxicity (cell titer glo, 72 h) ovarian cancer cell line PA-1; type: cell-based; conditions: Homo sapiens, PA-1 cell line
Description: T-24 Cell line were cultured in McCoy's 5a Medium Modified supplemented with 10% FBS and the PA-1 Cell line was cultured in EMEM Media supplemented with 10% FBS. The assay was performed by plating 5,000 cells/well and incubated at 37° C. overnight. […] Each concentration was added in triplicate and media-only wells used as a control. After incubation for 72 h cell titer glow (Promega) reagent (50 μL) was added to each well and the plates shaken for 5 mins and the luminescence was recorded. Percent viability was determined by dividing luminescence of the treated well by the non-treated well and multiplying by 100. Data was analysed using non-linear regression with a logarithmic scale.
5,000 cells/well were plated and incubated at 37° C. overnight. Conjugates/vehicle control dilutions were made in respective media and added to cells. Volume added: 50 uL to each well. […] Each concentration was analysed in triplicates. […] Cell titer glow reagent (volume: 50 uL) was added to each well, the plate was shaken for 5 mins and the luminescence was recorded. […] Percent viability was calculated by dividing the luminescence signal obtained for each treated well by the untreated well (media-only control) and multiplying by 100.

MDA-MB-231 cells = experiment: MTT cytotoxicity assay, MDA-MB-231 breast; type: cell-based; conditions: Homo sapiens
Description: (§6) The Untreated cells were used as Control. […] Cells were incubated for 3 h at 37° C. The supernatant was aspirated.
(§7) The % Cytotoxicity was calculated using the formula: […]
as §4, §5

A549 cells = experiment: MTT cytotoxicity assay, A549 lungs; type: cell-based; conditions: Homo sapiens
Description: as §6, §7, §4, §5

HT29 cells = experiment: MTT cytotoxicity assay, HT29 colon; type: cell-based; conditions: Homo sapiens, HT-29
Description: as §6, §7, §4, §5

T24 cells = experiment: MTT cytotoxicity assay, T24 bladder; type: cell-based; conditions: Homo sapiens, T-24
Description: as §6, §7, §4, §5

AGS cells = experiment: MTT cytotoxicity assay, AGS stomach; type: cell-based; conditions: Homo sapiens, 48 h
Description: as §6, §7, §4, §5

PBMC Normal = experiment: Cytotoxic effect by MTT assay, 48 h; conditions: for Percent cytotoxicity wrt control: PBMC, 48 h
Description: as §1, §2, §3

PA-1 cells [2] = experiment: MTT cytotoxicity assay, PA-1 ovary; type: cell-based; conditions: Homo sapiens
Description: as §6, §7, §4, §5

CC[C@H](C)[C@@H]([C@@H](CC(=O)N1CCC[C@H]1[C@H](OC)[C@@H](C)C(=O)N[C@H](C)[C@@H](O)c1ccccc1)OC)N(C)C(=O)[C@@H](NC(=O)[C@@H](NC)C(C)C)C(C)C [MMAE, monomethyl auristatin E] (H-[NMeV]V[Dil][Dolaproine]-X1)
Percent cytotoxicity wrt control (A549 Lungs; A549, 0.0001 μM): 27.9%
Percent cytotoxicity wrt control (A549 Lungs; A549, 0.001 μM): 39.3%
Percent cytotoxicity wrt control (A549 Lungs; A549, 0.1 μM): 58.8%
Percent cytotoxicity wrt control (A549 Lungs; A549, 1 μM): 83.6%
Percent cytotoxicity wrt control (A549 Lungs; A549, 10 μM): 75.8%
pIC50 (A549 Lungs; read-out: IC50 Values, A549 Lungs, after 48 h of treatment): 8.00
pIC50 (PA-1 cells [1]): 8.49
pIC50 (MDA-MB-231 cells; MDA-MB-231, 48 h): < 5.00
cytotoxicity at 0.0001 µM (MDA-MB-231 cells; MDA-MB-231, 0.0001 μm, 48 h, read-out: Percent cytotoxicity wrt control): 11.3%
cytotoxicity at 0.001 µM (MDA-MB-231 cells; MDA-MB-231, 0.001 μm, 48 h, read-out: Percent cytotoxicity wrt control): 13.3%
cytotoxicity at 0.01 µM (MDA-MB-231 cells; MDA-MB-231, 0.01 μm, 48 h, read-out: Percent cytotoxicity wrt control): 28.9%
cytotoxicity at 0.1 µM (MDA-MB-231 cells; MDA-MB-231, 0.1 μm, 48 h, read-out: Percent cytotoxicity wrt control): 23.8%
cytotoxicity at 1 µM (MDA-MB-231 cells; MDA-MB-231, 1 μm, 48 h, read-out: Percent cytotoxicity wrt control): 16.8%
cytotoxicity at 10 µM (MDA-MB-231 cells; MDA-MB-231, 10 μm, 48 h, read-out: Percent cytotoxicity wrt control): 26.4%
pIC50 (A549 cells; A549, 48 h): 8.00
cytotoxicity at 0.0001 µM (A549 cells; A549, 0.0001 μm, 48 h, read-out: Percent cytotoxicity wrt control): 27.9%
cytotoxicity at 0.001 µM (A549 cells; A549, 0.001 μm, 48 h, read-out: Percent cytotoxicity wrt control): 39.3%
cytotoxicity at 0.01 µM (A549 cells; A549, 0.01 μm, 48 h, read-out: Percent cytotoxicity wrt control): 43.5%
cytotoxicity at 0.1 µM (A549 cells; A549, 0.1 μm, 48 h, read-out: Percent cytotoxicity wrt control): 58.8%
cytotoxicity at 1 µM (A549 cells; A549, 1 μm, 48 h, read-out: Percent cytotoxicity wrt control): 83.6%
cytotoxicity at 10 µM (A549 cells; A549, 10 μm, 48 h, read-out: Percent cytotoxicity wrt control): 75.8%
cytotoxicity at 0.0001 µM (HT29 cells; HT29, 0.0001 μm, 48 h, read-out: Percent cytotoxicity wrt control): 44.1%
cytotoxicity at 0.001 µM (HT29 cells; HT29, 0.001 μm, 48 h, read-out: Percent cytotoxicity wrt control): 44.6%
cytotoxicity at 0.01 µM (HT29 cells; HT29, 0.01 μm, 48 h, read-out: Percent cytotoxicity wrt control): 50.6%
cytotoxicity at 0.1 µM (HT29 cells; HT29, 0.1 μm, 48 h, read-out: Percent cytotoxicity wrt control): 50.4%
cytotoxicity at 1 µM (HT29 cells; HT29, 1 μm, 48 h, read-out: Percent cytotoxicity wrt control): 51.9%
cytotoxicity at 10 µM (HT29 cells; HT29, 10 μm, 48 h, read-out: Percent cytotoxicity wrt control): 55.9%
pIC50 (HT29 cells; HT29, 48 h): 7.30
cytotoxicity at 0.0001 µM (T24 cells; T24, 0.0001 μm, 48 h, read-out: Percent cytotoxicity wrt control): 51.8%
cytotoxicity at 0.001 µM (T24 cells; T24, 0.001 μm, 48 h, read-out: Percent cytotoxicity wrt control): 51.1%
cytotoxicity at 0.01 µM (T24 cells; T24, 0.01 μm, 48 h, read-out: Percent cytotoxicity wrt control): 46.1%
cytotoxicity at 0.1 µM (T24 cells; T24, 0.1 μm, 48 h, read-out: Percent cytotoxicity wrt control): 44.4%
cytotoxicity at 1 µM (T24 cells; T24, 1 μm, 48 h, read-out: Percent cytotoxicity wrt control): 44.4%
cytotoxicity at 10 µM (T24 cells; T24, 10 μm, 48 h, read-out: Percent cytotoxicity wrt control): 53.2%
pIC50 (T24 cells; T24, 48 h): 11.00
cytotoxicity at 0.0001 µM (AGS cells; 0.0001 μm, read-out: Percent cytotoxicity wrt control): 30.9%
cytotoxicity at 0.001 µM (AGS cells; 0.001 μm, read-out: Percent cytotoxicity wrt control): 31.7%
cytotoxicity at 0.01 µM (AGS cells; 0.01 μm, read-out: Percent cytotoxicity wrt control): 32.6%
cytotoxicity at 0.1 µM (AGS cells; 0.1 μm, read-out: Percent cytotoxicity wrt control): 48.2%
cytotoxicity at 1 µM (AGS cells; 1 μm, read-out: Percent cytotoxicity wrt control): 48.4%
cytotoxicity at 10 µM (AGS cells; 10 μm, read-out: Percent cytotoxicity wrt control): 54.4%
pIC50 (AGS cells): 5.81
Percent cytotoxicity wrt control (PBMC Normal; 0.0001 μM): −2.7%
Percent cytotoxicity wrt control (PBMC Normal; 0.001 μM): 29.8%
Percent cytotoxicity wrt control (PBMC Normal; 0.01 μM): 34.3%
Percent cytotoxicity wrt control (PBMC Normal; 0.1 μM): 34.1%
Percent cytotoxicity wrt control (PBMC Normal; 1 μM): 26.6%
Percent cytotoxicity wrt control (PBMC Normal; 10 μM): 32.5%
pIC50 (PBMC Normal; read-out: IC50 Values, PBMC Normal, after 48 h of treatment): < 5.00
pIC50 (PA-1 cells [2]; PA-1, 48 h): 7.52
cytotoxicity at 0.0001 µM (PA-1 cells [2]; PA-1, 0.0001 μm, 48 h, read-out: Percent cytotoxicity wrt control): 13.4%
cytotoxicity at 0.001 µM (PA-1 cells [2]; PA-1, 0.001 μm, 48 h, read-out: Percent cytotoxicity wrt control): 57.5%
cytotoxicity at 0.01 µM (PA-1 cells [2]; PA-1, 0.01 μm, 48 h, read-out: Percent cytotoxicity wrt control): 50%
cytotoxicity at 0.1 µM (PA-1 cells [2]; PA-1, 0.1 μm, 48 h, read-out: Percent cytotoxicity wrt control): 57.5%
cytotoxicity at 1 µM (PA-1 cells [2]; PA-1, 1 μm, 48 h, read-out: Percent cytotoxicity wrt control): 61.7%
cytotoxicity at 10 µM (PA-1 cells [2]; PA-1, 10 μm, 48 h, read-out: Percent cytotoxicity wrt control): 58.3%
